{"source": "patent US6472348B1", "about": "“Pyridone derivatives and herbicides” (Kumiai Chemical Industry Co., Ltd., priority 1996, dated 2002);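 for Herbicidal effects Ci: grade of growth control; 5 = at least 90%; 4 = 70 to 90%; 3 = 50 to 70%; 2 = 30 to 50%; 1 = 10 to 30%; 0 = under 10%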;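 for Herbicidal effects Ec: grade of growth control; 5 = at least 90%; 4 = 70 to 90%; 3 = 50 to 70%; 2 = 30 to 50%; 1 = 10 to 30%; 0 = under 10%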;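 for Herbicidal effects Mo: grade of growth control; 5 = at least 90%; 4 = 70 to 90%; 3 = 50 to 70%; 2 = 30 to 50%; 1 = 10 to 30%; 0 = under 10%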;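 for Herbicidal effects Sc: grade of growth control; 5 = at least 90%; 4 = 70 to 90%; 3 = 50 to 70%; 2 = 30 to 50%; 1 = 10 to 30%; 0 = under 10%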", "key": {"[1]": {"test_system": "pale smartweed (Po)", "test": "Test Example 11: crop plant selectivity by upland field foliage treatment (corn), herbicidal effects", "assay_type": "in vivo", "design": "scale not given here", "details": "pale smartweed; foliage treatment; dose 1.6 g ai/10a; evaluated on 14th day after treatment; index per Table 47", "summary_of_the_method": "(§1)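 Corn and the weed species were sown together in sand-filled pots and grown in a greenhouse for 2 weeks before foliar treatment. Herbicidal effect was scored on day 14 after treatment against a graded standard scale, with corn phytotoxicity scored alongside.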"}, "[2]": {"test_system": "China jute (Ab)", "test": "Test Example 11: crop plant selectivity by upland field foliage treatment (corn), herbicidal effects", "assay_type": "in vivo", "design": "scale not given here", "details": "China jute; foliage treatment; dose 1.6 g ai/10a; evaluated on 14th day after treatment; index per Table 47", "summary_of_the_method": "as §1"}, "[3]": {"test_system": "slender amaranth (Am)", "test": "Test Example 11: crop plant selectivity by upland field foliage treatment (corn), herbicidal effects", "assay_type": "in vivo", "design": "scale not given here", "details": "slender amaranth; foliage treatment; dose 1.6 g ai/10a; evaluated on 14th day after treatment; index per Table 47", "summary_of_the_method": "as §1"}, "[4]": {"test_system": "common lambsquarters (Ch)", "test": "Test Example 11: crop plant selectivity by upland field foliage treatment (corn), herbicidal effects", "assay_type": "in vivo", "design": "scale not given here", "details": "common lambsquarters; foliage treatment; dose 1.6 g ai/10a; evaluated on 14th day after treatment; index per Table 47", "summary_of_the_method": "as §1"}, "[5]": {"test_system": "rice flatsedge (Ci)", "test": "Test Example 2: herbicidal effects by upland field soil treatment", "assay_type": "in vivo", "details": "100 g of the active ingredient per 10 ares, evaluated on the 21st day after application", "from_the_text": "(§2) (Test on Herbicidal Effects by Upland Field Soil Treatment)"}, "[6]": {"test_system": "pale smartweed (Po)", "test": "Test Example 2: herbicidal effects by upland field soil treatment", "assay_type": "in vivo", "details": "100 g of the active ingredient per 10 ares, evaluated on the 21st day after application", "from_the_text": "as §2"}, "[7]": {"test_system": "barnyardgrass (Ec)", "test": "Test Example 2: herbicidal effects by upland field soil treatment", "assay_type": "in vivo", "details": "100 g of the active ingredient per 10 ares, evaluated on the 21st day after application", "from_the_text": "as §2"}, "[8]": {"test_system": "Digitaria ciliaris (Di)", "test": "Test Example 2: herbicidal effects by upland field soil treatment", "assay_type": "in vivo", "details": "100 g of the active ingredient per 10 ares, evaluated on the 21st day after application", "from_the_text": "as §2"}, "[9]": {"test_system": "slender amaranth (Am)", "test": "Test Example 2: herbicidal effects by upland field soil treatment", "assay_type": "in vivo", "details": "100 g of the active ingredient per 10 ares, evaluated on the 21st day after application", "from_the_text": "as §2"}, "[10]": {"test_system": "common lambsquarters (Ch)", "test": "Test Example 2: herbicidal effects by upland field soil treatment", "assay_type": "in vivo", "details": "100 g of the active ingredient per 10 ares, evaluated on the 21st day after application", "from_the_text": "as §2"}, "[11]": {"test_system": "Diaitaria ciliaris (Di)", "test": "Test Example 3: herbicidal effects by upland field foliage treatment", "assay_type": "in vivo", "design": "scale not given here", "details": "100 g active ingredient per 10 ares, evaluated 14th day after treatment", "summary_of_the_method": "(§3)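 Scoring used a standard effect scale on the 14th day post-treatment, with plants held in a greenhouse throughout. Foliar application was made to weeds raised from seed in sand-filled pots for 2 weeks.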"}, "[12]": {"test_system": "rice flatsedge (Ci)", "test": "Test Example 3: herbicidal effects by upland field foliage treatment", "assay_type": "in vivo", "design": "scale not given here", "details": "100 g active ingredient per 10 ares, evaluated 14th day after treatment", "summary_of_the_method": "as §3"}, "[13]": {"test_system": "pale smartweed (Po)", "test": "Test Example 3: herbicidal effects by upland field foliage treatment", "assay_type": "in vivo", "design": "scale not given here", "details": "100 g active ingredient per 10 ares, evaluated 14th day after treatment", "summary_of_the_method": "as §3"}, "[14]": {"test_system": "barnyardgrass (Ec)", "test": "Test Example 3: herbicidal effects by upland field foliage treatment", "assay_type": "in vivo", "design": "scale not given here", "details": "100 g active ingredient per 10 ares, evaluated 14th day after treatment", "summary_of_the_method": "as §3"}, "[15]": {"test_system": "slender amaranth (Am)", "test": "Test Example 3: herbicidal effects by upland field foliage treatment", "assay_type": "in vivo", "design": "scale not given here", "details": "100 g active ingredient per 10 ares, evaluated 14th day after treatment", "summary_of_the_method": "as §3"}, "[16]": {"test_system": "common lambsquarters (Ch)", "test": "Test Example 3: herbicidal effects by upland field foliage treatment", "assay_type": "in vivo", "design": "scale not given here", "details": "100 g active ingredient per 10 ares, evaluated 14th day after treatment", "summary_of_the_method": "as §3"}, "[17]": {"test_system": "bulrush (Sc)", "test": "Test Example 1: herbicidal effects by paddy field soil treatment", "assay_type": "in vivo", "details": "100 g of the active ingredient per 10 ares, 21st day after the application, index 0-5 of Table 47", "summary_of_the_method": "(§4)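 Flooded paddy-soil pots (3 cm water) sown after puddling/leveling; treatment 100 g a.i./10 ares; greenhouse culture; herbicidal effect rated visually on a scoring scale at 21 d post-application.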"}, "[18]": {"test_system": "barnyardgrass (Ec)", "test": "Test Example 1: herbicidal effects by paddy field soil treatment", "assay_type": "in vivo", "details": "100 g of the active ingredient per 10 ares, 21st day after the application, index 0-5 of Table 47", "summary_of_the_method": "as §4"}, "[19]": {"test_system": "monochoria (Mo)", "test": "Test Example 1: herbicidal effects by paddy field soil treatment", "assay_type": "in vivo", "details": "100 g of the active ingredient per 10 ares, 21st day after the application, index 0-5 of Table 47", "summary_of_the_method": "as §4"}, "[20]": {"test_system": "corn (Ze)", "test": "Test Example 11: crop plant selectivity by upland field foliage treatment (corn), phytotoxicity", "details": "corn; foliage treatment; dose 1.6 g ai/10a; evaluated on 14th day after treatment; index per Table 47", "summary_of_the_method": "as §1"}, "[21]": {"test_system": "pale smartweed (Po)", "test": "Test Example 4: crop plant selectivity by upland field soil treatment (cotton), herbicidal effects", "assay_type": "in vivo", "design": "scale not given here", "details": "dose 6.3 g ai/10 a, evaluated 21st day after application", "summary_of_the_method": "(§5)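 Upland soil-treatment selectivity test: scoring on day 21 post-application in a greenhouse, rating crop phytotoxicity on cotton and herbicidal effect on co-sown weeds. Seeds were sown in sand-filled pots and covered with soil before treatment.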"}, "[22]": {"test_system": "China jute (Ab)", "test": "Test Example 4: crop plant selectivity by upland field soil treatment (cotton), herbicidal effects", "assay_type": "in vivo", "design": "scale not given here", "details": "dose 6.3 g ai/10 a, evaluated 21st day after application", "summary_of_the_method": "as §5"}, "[23]": {"test_system": "slender amaranth (Am)", "test": "Test Example 4: crop plant selectivity by upland field soil treatment (cotton), herbicidal effects", "assay_type": "in vivo", "design": "scale not given here", "details": "dose 6.3 g ai/10 a, evaluated 21st day after application", "summary_of_the_method": "as §5"}, "[24]": {"test_system": "common lambsquarters (Ch)", "test": "Test Example 4: crop plant selectivity by upland field soil treatment (cotton), herbicidal effects", "assay_type": "in vivo", "design": "scale not given here", "details": "dose 6.3 g ai/10 a, evaluated 21st day after application", "summary_of_the_method": "as §5"}, "[25]": {"test_system": "Diaitaria ciliaris (Di)", "test": "Test Example 4: crop plant selectivity by upland field soil treatment (cotton), herbicidal effects", "assay_type": "in vivo", "details": "dose 6.3 g ai/10 a, evaluated 21st day after application", "description": "(§6) (Test on Crop Plant Selectivity by Upland Field Soil Treatment)\nIn a plastic pot (surface area: 600 cm^2) filled with sand, cotton (Go), Diaitaria ciliaris (Di), green foxtail (Se), pale smartweed (Po), slender amaranth (Am), common lambsquarters (Ch) and China jute (Ab) were sown and covered with soil. […] The plants were then cultured in a green house, and the evaluation of the herbicidal effects and phytotoxicity was conducted on the 21st day after the application in accordance with the standards as identified in Table 47. Symbol—represents “not tested”."}, "[26]": {"test_system": "pale smartweed (Po)", "test": "Test Example 6: crop plant selectivity by upland field soil treatment (soybean), herbicidal effects", "assay_type": "in vivo", "design": "scale not given here", "details": "dose 6.3 g ai/10a, 21st day after application", "summary_of_the_method": "(§7)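 Greenhouse pot test with soil-applied compound after sowing soybean and weeds in sand; effects graded on day 21 after application.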"}, "[27]": {"test_system": "China jute (Ab)", "test": "Test Example 6: crop plant selectivity by upland field soil treatment (soybean), herbicidal effects", "assay_type": "in vivo", "design": "scale not given here", "details": "dose 6.3 g ai/10a, 21st day after application", "summary_of_the_method": "as §7"}, "[28]": {"test_system": "slender amaranth (Am)", "test": "Test Example 6: crop plant selectivity by upland field soil treatment (soybean), herbicidal effects", "assay_type": "in vivo", "design": "scale not given here", "details": "dose 6.3 g ai/10a, 21st day after application", "summary_of_the_method": "as §7"}, "[29]": {"test_system": "common lambsquarters (Ch)", "test": "Test Example 6: crop plant selectivity by upland field soil treatment (soybean), herbicidal effects", "assay_type": "in vivo", "design": "scale not given here", "details": "dose 6.3 g ai/10a, 21st day after application", "summary_of_the_method": "as §7"}, "[30]": {"test_system": "cotton (Go)", "test": "Test Example 4: crop plant selectivity by upland field soil treatment (cotton), phytotoxicity", "assay_type": "in vivo", "design": "scale not given here", "details": "dose 6.3 g ai/10 a, evaluated 21st day after application", "summary_of_the_method": "as §5"}, "[31]": {"test_system": "Diaitaria ciliaris (Di)", "test": "Test Example 6: crop plant selectivity by upland field soil treatment (soybean), herbicidal effects", "assay_type": "in vivo", "details": "dose 6.3 g ai/10a, 21st day after application", "description": "as §6\n(§8) In a plastic pot (surface area: 600 cm^2) filled with sand, soybean (Gl), Diaitaria ciliaris (Di), green foxtail (Se), Johnsongrass (So), pale smartweed (Po), slender amaranth (Am), common lambsquarters (Ch) and China jute (Ab) were sown and covered with soil. […] The plants were then cultured in a green house, and the evaluation of the herbicidal effects and phytotoxicity was conducted on the 21st day after the application in accordance with the standards as identified in Table 47. Symbol—represents “not tested”."}, "[32]": {"test_system": "Johnsongrass (So)", "test": "Test Example 6: crop plant selectivity by upland field soil treatment (soybean), herbicidal effects", "assay_type": "in vivo", "details": "dose 6.3 g ai/10a, 21st day after application", "description": "as §6, §8"}, "[33]": {"test_system": "soybean (Gl)", "test": "Test Example 6: crop plant selectivity by upland field soil treatment (soybean), phytotoxicity", "assay_type": "in vivo", "design": "scale not given here", "details": "dose 6.3 g ai/10a, 21st day after application", "summary_of_the_method": "as §7"}}}
{"compound": "C#CCOc1cc(-c2cn(C)c(C(F)(F)F)cc2=O)c(F)cc1Cl", "note": "[Compound 6-9]", "values": [{"measurement": "Herbicidal effects Po", "setting": "[1]", "result": 5}, {"measurement": "Herbicidal effects Ab", "setting": "[2]", "result": 5}, {"measurement": "Herbicidal effects Am", "setting": "[3]", "result": 5}, {"measurement": "Herbicidal effects Ch", "setting": "[4]", "result": 5}, {"measurement": "Herbicidal effects Ci", "setting": "[5]", "result": 5}, {"measurement": "Herbicidal effects Po", "setting": "[6]", "result": 5}, {"measurement": "Herbicidal effects Ec", "setting": "[7]", "result": 5}, {"measurement": "Herbicidal effects Di", "setting": "[8]", "result": 5}, {"measurement": "Herbicidal effects Am", "setting": "[9]", "result": 5}, {"measurement": "Herbicidal effects Ch", "setting": "[10]", "result": 5}, {"measurement": "Herbicidal effects Di", "setting": "[11]", "result": 5}, {"measurement": "Herbicidal effects Ci", "setting": "[12]", "result": 5}, {"measurement": "Herbicidal effects Po", "setting": "[13]", "result": 5}, {"measurement": "Herbicidal effects Ec", "setting": "[14]", "result": 5}, {"measurement": "Herbicidal effects Am", "setting": "[15]", "result": 5}, {"measurement": "Herbicidal effects Ch", "setting": "[16]", "result": 5}, {"measurement": "Herbicidal effects Sc", "setting": "[17]", "result": 5}, {"measurement": "Herbicidal effects Ec", "setting": "[18]", "result": 5}, {"measurement": "Herbicidal effects Mo", "setting": "[19]", "result": 5}, {"measurement": "Phytotoxicity Ze", "setting": "[20]", "result": 1}, {"measurement": "Herbicidal effects Po", "setting": "[21]", "result": 5}, {"measurement": "Herbicidal effects Ab", "setting": "[22]", "result": 5}, {"measurement": "Herbicidal effects Am", "setting": "[23]", "result": 5}, {"measurement": "Herbicidal effects Ch", "setting": "[24]", "result": 5}, {"measurement": "Herbicidal effects Di", "setting": "[25]", "result": 5}, {"measurement": "Herbicidal effects Po", "setting": "[26]", "result": 5}, {"measurement": "Herbicidal effects Ab", "setting": "[27]", "result": 5}, {"measurement": "Herbicidal effects Am", "setting": "[28]", "result": 5}, {"measurement": "Herbicidal effects Ch", "setting": "[29]", "result": 5}, {"measurement": "Phytotoxicity Go", "setting": "[30]", "result": 0}, {"measurement": "Herbicidal effects Di", "setting": "[31]", "result": 5}, {"measurement": "Herbicidal effects So", "setting": "[32]", "result": 5}, {"measurement": "Phytotoxicity Gl", "setting": "[33]", "result": 0}]}
